The compounds below were run on IFNα-induced pSTAT5 (pY694) in CD3 positive cells of human whole blood (assay: IFNα-Induced STAT Phosphorylation in Human Whole Blood). Details: Homo sapiens, 1 h compound incubation, 1000 U/mL recombinant human IFNα A/D for 15 min, pSTAT5 in CD3 positive population, read-out: Human WB IFNα-Induced Stat Phosph. (IC50).
Assay type: cell-based
In short: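 Read-out is median fluorescence intensity of pSTAT5 (pY694) in the CD3-positive gate, by flow cytometry after fix/lyse and permeabilization. Before that, whole human blood anticoagulated with EDTA or ACD-A received compound for an hour and 1000 U/mL IFNα A/D for 15 min.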

| IC50 [nM] | SMILES |
| --- | --- |
| 200 | [2H]C([2H])([2H])NC(=O)c1nnc(NC(=O)C2CC2)cc1Nc1cccc(-c2nc(CN3CCS(=O)(=O)CC3)no2)c1OC [Example 164] |
| 4970 | COc1c(Nc2cc(N)nnc2C(N)=O)cccc1-c1noc(C(=O)NC2CCN(C)CC2)n1 [Example 116] |
| 650 | [2H]C([2H])([2H])NC(=O)c1nnc(NC(=O)C2CC2)cc1Nc1cccc(-c2cc(C(=O)NCCN(C)C)n(C)n2)c1OC [Example 536] |
| 150 | [2H]C([2H])([2H])NC(=O)c1cnc(NC(=O)C2CC2)cc1Nc1cccc(-c2nc(CN3CCCC3)no2)c1OC [Example 215] |
| 11 | [2H]C([2H])([2H])NC(=O)c1nnc(NC(=O)C2CC2)cc1Nc1cccc(-c2noc(CN3CCCCS3(=O)=O)n2)c1OC [Example 12] |
| 60 | [2H]C([2H])([2H])NC(=O)c1cnc(NC(=O)C2CC2)cc1Nc1cccc(-c2cc(C(=O)N(C)C)n(C)n2)c1OC [Example 486] |
| 30 | COc1c(Nc2cc(NC(=O)C3CC3)nnc2C(N)=O)cccc1-c1noc(CNS(C)(=O)=O)n1 [Example 38] |
| 170 | [2H]C([2H])([2H])NC(=O)c1nnc(Nc2cc(C)n(C)n2)cc1Nc1cc(F)cc(-c2cc(C(=O)N(C)C)n(C)n2)c1OC [Example 548] |
| 1680 | [2H]C([2H])([2H])NC(=O)c1nnc(NC(=O)C2CC2)cc1Nc1cccc(-c2cc(C(=O)NC(CO)CO)n(C)n2)c1OC [Example 523] |
| 120 | COc1c(Nc2cc(NC(=O)C3CC3)nnc2C(N)=O)cccc1-c1ncc(C(=O)NC2CCCCC2)s1 [Example 396] |
| 2010 | [2H]C([2H])([2H])NC(=O)c1nnc(NC(=O)C2CC2)cc1Nc1cccc(-c2nc(CN3CCN(C(=O)OC(C)(C)C)CC3)no2)c1OC [Example 135] |
| 260 | [2H]C([2H])([2H])NC(=O)c1nnc(NC(=O)C2CC2)cc1Nc1cccc(-c2cnn(CCNC(=O)CC#N)n2)c1OC [Example 435] |
| > 10000 | [2H]C([2H])([2H])NC(=O)c1nnc(NC(=O)C2CC2)cc1Nc1cccc(-c2nc(CNC(=O)CNC(=O)OC(C)(C)C)no2)c1OC [Example 157] |
| > 10000 | [2H]C([2H])([2H])NC(=O)c1nnc(NC(=O)C2CC2)cc1Nc1cc(F)cc(-c2cc(C(=O)NCCCCC)n(C)n2)c1OC [Example 513] |
| 80 | [2H]C([2H])([2H])NC(=O)c1nnc(NC(=O)C2CC2)cc1Nc1cccc(-c2noc(CNS(C)(=O)=O)n2)c1OC [Example 32] |
| > 10000 | [2H]C([2H])([2H])NC(=O)c1nnc(NC(=O)C2CC2)cc1Nc1cccc(-c2ncc(C(=O)NC(C)(C)C)s2)c1OC [Example 309] |
| 100 | [2H]C([2H])([2H])NC(=O)c1nnc(NC(=O)C2CC2)cc1Nc1cccc(-c2ncc(C(=O)NCCCN3CCCC3)s2)c1OC [Example 340] |
| 930 | [2H]C([2H])([2H])NC(=O)c1nnc(Nc2cnc(OC)cn2)cc1Nc1cccc(-c2csc(C(=O)NCCOC)n2)c1OC [Example 570] |
| 560 | [2H]C([2H])([2H])NC(=O)c1nnc(NC(=O)C2CC2)cc1Nc1cccc(-c2nc(CO)no2)c1OC [Example 174] |

| IC50 [nM] | SMILES |
| --- | --- |
| 510 | [2H]C([2H])([2H])NC(=O)c1nnc(NC(=O)C2CC2)cc1Nc1cc(F)cc(-c2nc(CN3CCOCC3)no2)c1OC [Example 230] |
| 1720 | [2H]C([2H])([2H])NC(=O)c1nnc(NC(=O)C2CC2)cc1Nc1cccc(-c2nc(CNC(=O)CN(C)C)no2)c1OC [Example 147] |
| 30 | [2H]C([2H])([2H])NC(=O)c1nnc(NC(=O)C2CC2)cc1Nc1cccc(-c2noc([C@@H]3C[C@@H](O)CN3S(C)(=O)=O)n2)c1OC [Example 75] |
| 690 | [2H]C([2H])([2H])NC(=O)c1nnc(NC(=O)C2CC2)cc1Nc1cccc(-c2nc(CN(C)C(=O)CC#N)no2)c1OC [Example 171] |
| 530 | [2H]C([2H])([2H])NC(=O)c1nnc(NC(=O)C2CC2)cc1Nc1cccc(-c2nc(C3(NC(C)=O)CC3)no2)c1OC [Example 165] |
| 60 | [2H]C([2H])([2H])NC(=O)c1nnc(NC(=O)C2CC2)cc1Nc1cccc(-c2ncc(C(=O)N3CCC(N4CCCCC4)CC3)s2)c1OC [Example 351] |
| 300 | [2H]C([2H])([2H])NC(=O)c1nnc(NC(=O)C2CC2)cc1Nc1cccc(-c2nc(CN(C)C(C)=O)no2)c1OC [Example 173] |
| 2420 | [2H]C([2H])([2H])NC(=O)c1nnc(NC(=O)C2CC2)cc1Nc1cccc(-c2nc(CN(C)C(=O)OC(C)(C)C)no2)c1OC [Example 167] |
| 16 | [2H]C([2H])([2H])NC(=O)c1nnc(NC(=O)C2CC2)cc1Nc1cccc(-c2noc(CN(C)S(C)(=O)=O)n2)c1OC [Example 65] |
| 820 | [2H]C([2H])([2H])NC(=O)c1nnc(Nc2ccc(OC)nn2)cc1Nc1cccc(-c2ncc(CNC(=O)OC)s2)c1OC [Example 391] |
| 50 | [2H]C([2H])([2H])NC(=O)c1cnc(NC(=O)C2CC2)cc1Nc1cccc(-c2noc(COCC)n2)c1OC [Example 91] |
| 80 | [2H]C([2H])([2H])NC(=O)c1nnc(NC(=O)C2CC2)cc1Nc1cccc(-c2ncc(C(=O)N3CCC(CCN4CCCC4)CC3)s2)c1OC [Example 318] |
| 870 | [2H]C([2H])([2H])NC(=O)c1nnc(NC(=O)C2CC2)cc1Nc1cc(F)cc(-c2cc(C(=O)N(C)CCN(C)C)n(C)n2)c1OC [Example 514] |
| 250 | [2H]C([2H])([2H])NC(=O)c1nnc(Nc2ccc(OC)nn2)cc1Nc1cccc(-c2csc(C(=O)NCCOC)n2)c1OC [Example 565] |
| 230 | [2H]C([2H])([2H])NC(=O)c1cnc(NC(=O)CC)cc1Nc1cccc(-c2noc(COC)n2)c1OC [Example 88] |
| 270 | [2H]C([2H])([2H])NC(=O)c1nnc(NC(=O)C2CC2)cc1Nc1cccc(-c2nc(C)c(C(=O)NCC)s2)c1OC [Example 360] |
| 570 | [2H]C([2H])([2H])NC(=O)c1nnc(NC(=O)C2CC2)cc1Nc1cc(F)cc(-c2cc(C(=O)N3CCNC(=O)C3)n(C)n2)c1OC [Example 519] |
| 5240 | [2H]C([2H])([2H])NC(=O)c1nnc(NC(=O)C2CC2)cc1Nc1cccc(-c2nc([C@@H](COC(C)(C)C)NC(=O)OC(C)(C)C)no2)c1OC [Example 219] |
| 30 | COc1c(Nc2cc(NC(=O)C3CC3)nnc2C(N)=O)cccc1-c1ncc(C(=O)N(C)C)s1 [Example 246] |

| IC50 [nM] | SMILES |
| --- | --- |
| 70 | [2H]C([2H])([2H])NC(=O)c1nnc(NC(=O)C2CC2)cc1Nc1cccc(-c2noc(CN3CCC(O)C3)n2)c1OC (stereo not shown) [Example 82] |
| 160 | COc1c(Nc2cc(NC(=O)C3CC3)nnc2C(N)=O)cccc1-c1ncc(C(=O)N2CCCC2)s1 [Example 407] |
| 1130 | [2H]C([2H])([2H])NC(=O)c1nnc(NC(=O)C2CC2)cc1Nc1cc(F)cc(-c2cc(NS(C)(=O)=O)n(C)n2)c1OC [Example 501] |
| 110 | [2H]C([2H])([2H])NC(=O)c1nnc(NC(=O)C2CC2)cc1Nc1cccc(-c2noc(CN)n2)c1OC [Example 6, 4-((3-(5-(aminomethyl)-1,2,4-oxadiazol-3-yl)-2-methoxyphenyl)amino)-6-(cyclopropanecarboxamido)-N-trideuteromethylpyridazine-3-carboxamide] |
| 70 | COc1c(Nc2cc(NC(=O)C3CC3)nnc2C(N)=O)cccc1-c1noc(CNS(=O)(=O)C(C)C)n1 [Example 50] |
| 2010 | [2H]C([2H])([2H])NC(=O)c1nnc(NC(=O)C2CC2)cc1Nc1cccc(-c2noc(C(C)(C)C(=O)N3CCOCC3)n2)c1OC [Example 27] |
| 340 | [2H]C([2H])([2H])NC(=O)c1nnc(NC(=O)C2CC2)cc1Nc1cccc(-c2ccn(CCNC(=O)CC#N)n2)c1OC [Example 470] |
| 30 | [2H]C([2H])([2H])NC(=O)c1nnc(NC(=O)C2CC2)cc1Nc1cccc(-c2nc(CN3CCN(S(C)(=O)=O)CC3)no2)c1OC [Example 128] |
| 1270 | [2H]C([2H])([2H])NC(=O)c1nnc(NC(=O)C2CC2)cc1Nc1cccc(-c2nc([C@@H](NC(=O)OC)[C@@H](C)O)no2)c1OC [Example 188] |
| 1800 | [2H]C([2H])([2H])NC(=O)c1nnc(NC(=O)C2CC2)cc1Nc1cccc(-c2ncc(CC(=O)NCCOC)o2)c1OC [Example 411] |
| > 10000 | [2H]C([2H])([2H])NC(=O)c1nnc(NC(=O)C2CC2)cc1Nc1cccc(-c2nc(/C=C/c3ccccc3)no2)c1OC [Example 236] |
| 700 | [2H]C([2H])([2H])NC(=O)c1cnc(Nc2ccc(OC)nn2)cc1Nc1cccc(-c2csc(C(=O)NCCOC)n2)c1OC [Example 567] |
| 170 | [2H]C([2H])([2H])NC(=O)c1nnc(NC(=O)C2CC2)cc1Nc1cc(F)cc(-c2cc(C(=O)N3CCC(N4CCCC4)CC3)n(C)n2)c1OC [Example 516] |
| 23 | [2H]C([2H])([2H])NC(=O)c1cnc(NC(=O)C2CC2)cc1Nc1cccc(-c2noc(CO)n2)c1OC [Example 98] |
| 1100 | [2H]C([2H])([2H])NC(=O)c1nnc(NC(=O)C2CC2)cc1Nc1cccc(-c2cc(C(=O)NCCC#N)n(C)n2)c1OC [Example 477] |
| 40 | [2H]C([2H])([2H])NC(=O)c1nnc(NC(=O)C2CC2)cc1Nc1cccc(-c2cc(C(=O)N3CCN(C(C)=O)CC3)n(C)n2)c1OC [Example 493] |
| 390 | [2H]C([2H])([2H])NC(=O)c1nnc(NC(=O)C2CC2)cc1Nc1cccc(-c2cc(C(=O)N(C)CCOC)n(C)n2)c1OC [Example 481] |
| 260 | [2H]C([2H])([2H])NC(=O)c1nnc(NC(=O)C2CC2)cc1Nc1cccc(-c2nc(CN3CCN(C(=O)COC)CC3)no2)c1OC [Example 127] |
| 2640 | [2H]C([2H])([2H])NC(=O)c1nnc(NC(=O)C2CC2)cc1Nc1cccc(-c2nc(CN3CCN(C(=O)OC(C)(C)C)CC3=O)no2)c1OC [Example 137] |

| SMILES | IC50 [nM] |
| --- | --- |
| [2H]C([2H])([2H])NC(=O)c1nnc(NC(=O)C2CC2)cc1Nc1cccc(-c2ncc(C(=O)N3[C@@H]4CC[C@H]3CC(N(C)C)C4)s2)c1OC (stereo partly shown) [Example 344] | 30 |
